Legend:
[1] = test system: photo receptor cells (PRC), choriocapillaris (CC) and RPE cells; experiment: Live-Dead cell viability immediately after photo-melding conditions; type: cell-based; conditions: control PBS
Experimental: Cellular viability of photo receptor cells (PRC), choriocapillaris (CC) and RPE cells were determined with the Live-Dead assay (Molecular Probes, Portland, Oreg.) to determine the safety of the photo-melding procedure. Human cadaver eyes were obtained from an eye bank. Anterior segments were removed and sensory retina and RPE-CC complex were dissected out. Tissue samples of 6-mm size were cut from each layer and placed in 1.5 mM and 10 mM rose bengal solution. Using similar parameters photo-melding conditions were mimicked. Viability was assessed immediately after exposure. Samples exposed to similar lighting conditions in PBS were taken as control.

[2] = Attachment strength of photo-melded inner collagenous layer explants in a buoyancy chamber; set-up: species or system human; conditions: for Attachment strength: 35 mW light at 40 mm
Experimental: Bruch's membrane explants were harvested from cadaver eyes. RPE-Bruch's membrane-Choroid complexes were dissected out under a microscope; washed with PBS three times and kept in 0.02N ammonium hydroxide for 30 minutes to lyse all cellular components. Three cycles of PBS washing followed by removal of the basal lamina mechanically as described before. Briefly, a full thickness circumferential incision was made posterior to the ora serrata and the anterior segment and vitreous were removed carefully. The posterior pole of each eye cup was inspected visually with direct and retroillumination under a dissecting microscope and globes were discarded if there was any evidence of subretinal blood, previous surgery or any extensive structural or vascular alteration of the posterior segment due to a disease process, such as proliferative diabetic retinopathy or proliferative vitreoretinopathy. The eyecups were put in carbon dioxide-free Media (Gibco) and a scleral incision was made 3 mm from the limbus and extended circumferentially. Four radial incisions were then made and the sclera was peeled away. […] The choroid-Bruch's membrane-RPE complex was then carefully peeled towards the optic disc and removed after trimming its attachment to the optic nerve. Native RPE were removed by bathing the explant with 0.02 N ammonium hydroxide in a 50-mm polystyrene Petri dish (Falcon, Becton Dickinson, Lincoln Park, N.J.) for 20 minutes at room temperature followed by washing three times in phosphate-buffered saline (PBS). The Bruch's membrane explant from the fellow eye was prepared by removing the RPE with 0.02N ammonium hydroxide as described above. The Bruch's membrane explant was then floated in CFM over a 12-18 micron thick hydrophilic polycarbonate-polyvinylpyrrolidone membrane with 0.4 micron pores (Millipore, Bedford, Mass.) with the basal lamina facing towards the membrane. The curled edges were flattened from the choroidal side with fine forceps without touching Bruch's membrane. Four percent agarose (Sigma Chemical Co., St. Louis, Mo.) was poured on the Bruch's membrane-choroid complex from the choroidal side and the tissue was kept at 4° C. for 2-3 minutes to solidify the agarose. The hydrophilic membrane was peeled off along with the basal lamina of the RPE thus exposing the bare inner collagenous layer. 6 mm circular buttons were then trephined from peripheral Bruch's membrane on a Teflon sheet and placed on 4% agarose at 37° C. in non-treated polystyrene wells of a 96 well plate (Corning Costar Corp., Cambridge, Mass.). The agarose solidified within 2-3 minutes at room temperature, thus stabilizing the Bruch's membrane explant. The wells were gently rinsed with PBS three times for 5 minutes, gamma sterilized (20,000 rads) and then stored at 4° C. Explants with exposed ICL were then cut with a 6-mm trephine and stored in sterile PBS after gamma sterilization at 20,000 rads. At the time of use ICL surface was painted with rose bengal (at concentrations as provided in FIG. 2) and two patches were faced to each other at their ICL surface. Extra fluid was removed with a Whatman #30 filter paper and the two surfaces were apposed. […] Exposure time was limited to three minutes not to exceed photo-toxicity thresholds. […] Exposed inner collagenous layers were painted with rose bengal and photo-[…] to each other by photo-exciting rose bengal with a white light source. The light intensity matched the vitrectomy endo illuminator and exposure was limited to 3 minutes to avoid retinal photo-toxicity. […] Attached grafts were kept under 0.21 mN (milliNewtons) of constant traction for 3 days to test the stability of the […] process.

[3] = Closure of 3 mm corneal wounds by impregnated gelatin sheets, Seidel test under rising intraocular pressure; set-up: species or system porcine; conditions: about 100-μm gelatin sheet (50% gelatin, 300 mM sucrose) impregnated with rose bengal 1.5 mM (light pipe 3 min), glyceraldehyde 0.2 M (no illumination) or riboflavin 0.1% (UV 370 nm); average±standard deviation
Experimental: Gelatin blocks were prepared by the following method: Gelatin (300 Blooms, Sigma, St. Louis, Mo.) was dissolved in Minimal Essential Medium (MEM, Gibco, Grand Island, N.Y.), 300 mM sucrose was added and the solution was sterilized with gamma irradiation (2.7 Megarads). Addition of 300 mM sucrose maintained the gelatin sheets in a solid phase at temperatures below 37° C. and allowed the gelatin sheet to melt within minutes at body temperature once the gelatin sheet were placed over the wound. Gelatin blocks were prepared at a concentration of about 50% (weight/volume of MEM), which were firm enough to manipulate during the surgery by the surgeon. These gelatin blocks have rigidity of 300 blooms. Once the gelatin/sucrose solution in MEM was sterilized, the solution was poured into 35-mm tissue culture dish (Falcon #3001, Becton Dickinson, Lincoln Park, N.J.) and allowed to cool for 15 minutes to solidify at room temperature. […]
Rose bengal was activated with an endoilluminator light pipe for 3 minutes. […] After each elevation, the treated wound was checked for the presence of any possible wound leak with the Seidel test, and the highest intraocular pressure at which the wound remained intact was recorded. This experiment was repeated three times on three different occasions and the results were calculated as average±standard deviation. […]

[4] = TEM and SEM ultrastructure of photo-melded Bruch's membrane explants; conditions: 0.1 to 20 mM tested
Experimental: Bruch's membrane explants were photo-melded with varying concentrations of rose bengal, ranging from 0.1 to 20 mM. Transmission electron microscopy (TEM) and scanning electron microscopy (SEM). […] At this concentration, cross linked collagen fibers twisted onto themselves and formed macro bundles. At concentrations higher that 1.5 mM, attenuation of individual collagen fibers and frequent breaks lead to the disruption of collagen framework resulting in hollow spaces at 10 and 20 mM concentrations. Starting from 0.1 mM concentration, the number of electron-dense collagen fibers increased as the concentration of rose bengal increased, possibly due to increased oxidation and subsequent better attraction of positively charged lead and osmium on the collagen fiber. At concentrations higher than 10 mM electron dense haze started to accumulate around the collagen debris.

PRC, CC and RPE cells = experiment: Live-Dead cell viability after photo-melding of Bruch's membrane patch graft in eyecup followed by ambient light; type: cell-based, human; conditions: 1.5 mM rose bengal; 6 hours ambient light at room temperature
Experimental: In order to assess the additive effect of subsequent ambient light on cell toxicity anterior segments of three eyecups were removed and a 20-D PMMA PC IOL was sutured into the ciliary sulcus. Sensory retina was carefully lifted off and foveal RPE cells were removed mechanically. Exposed Bruch's membrane was intentionally damaged and a 6-mm Bruch's membrane patch graft photo-melded by photo-exciting 1.5 mM of rose bengal through sensory retina. After the photo-melding procedure, the eyecup was maintained at room temperature for 6 hours exposed to ambient light. At the end of this period cellular viability was assessed with Live-Dead assay. Again, PBS treated eyes served as control.

Structure (SMILES)	PRC, CC and RPE cell viability immediately after photo-melding procedure ([1]; 1.5 mM rose bengal)	PRC, CC and RPE cell viability immediately after photo-melding procedure ([1]; 10 mM rose bengal)	Attachment strength ([2]; 1.5 mM rose bengal, 3 min)	Attachment strength ([2]; 5 mM rose bengal, 3 min)	Attachment strength ([2]; 10 mM rose bengal, 3 min)	Attachment strength ([2]; 20 mM rose bengal, 3 min)	Minimum concentration to attain strong photo-melding of human inner collagenous layer grafts ([2]; 3 min, 35 mW light)	Concentration resulting in photo-melding of exposed human inner collagenous layers ([2]; 3 min exposure to 35 mW of light at 40 millimeters)	Stability of photo-melded grafts under continuous traction ([2]; 72 hours of observation at 37° C., 0.21 mN constant traction)	Highest intraocular pressure at which the wound remained intact [3]	Concentration at which collagen crosslinking reached its maximum [4]	PRC, CC and RPE cell viability after photo-melding and ambient light exposure (PRC, CC and RPE cells)
O=C([O-])c1c(Cl)c(Cl)c(Cl)c(Cl)c1-c1c2cc(I)c(=O)c(I)c-2oc2c(I)c([O-])c(I)cc12.[Na+].[Na+] [rose bengal, tetratodotetrachioro fluorescein disodium salt]	no adverse side effect	no adverse side effect	14.1 N/m^2	14.1 N/m^2	5.7 N/m^2	2.83 N/m^2	1.5 mM	above 0.1 mM	remained attached	75.6±5.8 mmHg	1.5 mM	did not effect the viability
O=CC(O)CO (stereo not shown) [glyceraldehyde]	–	–	–	–	–	–	–	–	–	66.1±6.0 mmHg	–	–

Source: patent US20100028407A1, “LAYERED BIO-ADHESIVE COMPOSITIONS AND USES THEREOF” (UNIVERSITY OF LOUISVILLE RESEARCH FOUNDATION, INC., priority 2006, published 2010)
